Experimental data from patent US20260262643A1, “HERBICIDAL BENZOXAZINES” (FMC CORPORATION, priority 2022, published 2026).

Assays:
[1] = system: galium; test: Test A postemergence; type: in vivo, Galium aparine; conditions: 1000 g ai/ha, Postemergence; 0 to 100 scale
Outline: (§1)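 Visual injury ratings on a 0–100 scale (100 = complete control) versus untreated controls, taken 10 days after treatment in greenhouse. Preemergence: directed soil spray onto seeded loam/sand. Postemergence: foliar application at one- to two-leaf stage, plants 2–10 cm. Formulation: non-phytotoxic solvent plus surfactant.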

[2] = system: pigweed, palmer; test: Test A postemergence; type: in vivo, Amaranthus palmeri; conditions: 1000 g ai/ha, Postemergence; 0 to 100 scale
Outline: as §1

[3] = system: kochia; test: Test A preemergence; type: in vivo, Bassia scoparia; conditions: 1000 g ai/ha, 0 to 100 scale (0 no effect, 100 complete control), 10 days
Outline: as §1

[4] = system: foxtail, giant; test: Test A preemergence; type: in vivo, Setaria faberi; conditions: 1000 g ai/ha, 0 to 100 scale (0 no effect, 100 complete control), 10 days
Outline: as §1

[5] = system: ryegrass, Italian; test: Test A preemergence; type: in vivo, Lolium multiflorum; conditions: 1000 g ai/ha, 0 to 100 scale (0 no effect, 100 complete control), 10 days
Outline: as §1

[6] = system: blackgrass; test: Test A preemergence; type: in vivo, Alopecurus myosuroides; conditions: 1000 g ai/ha, 0 to 100 scale (0 no effect, 100 complete control), 10 days
Outline: as §1

[7] = system: barnyardgrass; test: Test A postemergence; type: in vivo, Echinochloa crusgalli; conditions: 1000 g ai/ha, Postemergence; 0 to 100 scale
Text: (§2) Seeds of plant species selected from barnyardgrass (Echinochloa crusgalli), blackgrass (Alopecurus myosuroides), corn (Zea mays), foxtail, giant (giant foxtail, Setaria faberi), goosegrass (Eleusine indica), kochia (Bassia scoparia), oat, wild (wild oat, Avena fatua), pigweed, palmer (palmer amaranth, palmer pigweed, Amaranthus palmeri), Pigweed, Redroot (redroot pigweed, Amaranthus retroflexus), ragweed (common ragweed, Ambrosia artemisiifolia), ryegrass, Italian (italian ryegrass, Lolium multiflorum), soybean (Glycine max), and wheat (Triticum aestivum) were planted into a blend of loam soil and sand and treated preemergence with a directed soil spray using test chemicals formulated in a non-phytotoxic solvent mixture which included a surfactant. At the same time, plants selected from these crops and weed species and also galium (catchweed bedstraw, Galium aparine) and horseweed (Erigeron canadensis) were planted in pots containing the same blend of loam soil and sand and treated with postemergence applications of test chemicals formulated in the same manner. Plants ranged in height from 2 to 10 cm and were in the one- to two-leaf stage for the postemergence treatment. Treated plants and untreated controls were maintained in a greenhouse for 10 days, after which time all treated plants were compared to untreated controls and visually evaluated for injury. Plant response ratings, summarized in Table A, are based on a 0 to 100 scale where 0 is no effect and 100 is complete control. A dash (-) response means no test result.

[8] = system: ragweed; test: Test A preemergence; type: in vivo, Ambrosia artemisiifolia; conditions: 1000 g ai/ha, 0 to 100 scale (0 no effect, 100 complete control), 10 days
Outline: as §1

[9] = system: ryegrass, Italian; test: Test A postemergence; type: in vivo, Lolium multiflorum; conditions: 1000 g ai/ha, Postemergence; 0 to 100 scale
Outline: as §1

[10] = system: barnyardgrass; test: Test A preemergence; type: in vivo, Echinochloa crusgalli; conditions: 1000 g ai/ha, 0 to 100 scale (0 no effect, 100 complete control), 10 days
Text: as §2

[11] = system: blackgrass; test: Test A postemergence; type: in vivo, Alopecurus myosuroides; conditions: 1000 g ai/ha, Postemergence; 0 to 100 scale
Outline: as §1

[12] = system: horseweed; test: Test A postemergence; type: in vivo, Erigeron canadensis; conditions: 1000 g ai/ha, Postemergence; 0 to 100 scale
Outline: as §1

[13] = system: foxtail, giant; test: Test A postemergence; type: in vivo, Setaria faberi; conditions: 1000 g ai/ha, Postemergence; 0 to 100 scale
Outline: as §1

[14] = system: ragweed; test: Test A postemergence; type: in vivo, Ambrosia artemisiifolia; conditions: 1000 g ai/ha, Postemergence; 0 to 100 scale
Outline: as §1

[15] = system: pigweed, palmer; test: Test A preemergence; type: in vivo, Amaranthus palmeri; conditions: 1000 g ai/ha, 0 to 100 scale (0 no effect, 100 complete control), 10 days
Outline: as §1

[16] = system: kochia; test: Test A postemergence; type: in vivo, Bassia scoparia; conditions: 1000 g ai/ha, Postemergence; 0 to 100 scale
Outline: as §1

## Cc1cccc2c1O[C@@H](C)CN2C(=O)c1cccc(-n2cc(Cl)cn2)c1 [Compound 132]
[1]
  Plant response rating, Galium: 0
[2]
  Plant response rating, Pigweed, Palmer: 0
[3]
  Plant response rating, Kochia: 0
[4]
  Plant response rating, Foxtail, Giant: 0
[5]
  Plant response rating, Ryegrass, Italian: 0
[6]
  Plant response rating, Blackgrass: 0
[7]
  Plant response rating, Barnyardgrass: 0
[8]
  Plant response rating, Ragweed: 0
[9]
  Plant response rating, Ryegrass, Italian: 0
[10]
  Plant response rating, Barnyardgrass: 10
[11]
  Plant response rating, Blackgrass: 0
[12]
  Plant response rating, Horseweed: 0
[13]
  Plant response rating, Foxtail, Giant: 10
[14]
  Plant response rating, Ragweed: 0
[15]
  Plant response rating, Pigweed, Palmer: 0
[16]
  Plant response rating, Kochia: 20

## CCOC(=O)c1cnn(-c2cccc(C(=O)N3C[C@H](C)Oc4c(C)cccc43)c2)c1 [Compound 133]
[1]
  Plant response rating, Galium: 60
[2]
  Plant response rating, Pigweed, Palmer: 30
[3]
  Plant response rating, Kochia: 0
[4]
  Plant response rating, Foxtail, Giant: 80
[5]
  Plant response rating, Ryegrass, Italian: 70
[6]
  Plant response rating, Blackgrass: 0
[7]
  Plant response rating, Barnyardgrass: 20
[8]
  Plant response rating, Ragweed: 30
[9]
  Plant response rating, Ryegrass, Italian: 60
[10]
  Plant response rating, Barnyardgrass: 60
[11]
  Plant response rating, Blackgrass: 0
[12]
  Plant response rating, Horseweed: 0
[13]
  Plant response rating, Foxtail, Giant: 30
[14]
  Plant response rating, Ragweed: 40
[15]
  Plant response rating, Pigweed, Palmer: 40
[16]
  Plant response rating, Kochia: 40

## Cc1cccc2c1O[C@@H](C)CN2C(=O)c1cccc(-n2cc(F)cn2)c1 [Compound 131]
[1]
  Plant response rating, Galium: 20
[2]
  Plant response rating, Pigweed, Palmer: 0
[3]
  Plant response rating, Kochia: 0
[4]
  Plant response rating, Foxtail, Giant: 60
[5]
  Plant response rating, Ryegrass, Italian: 60
[6]
  Plant response rating, Blackgrass: 10
[7]
  Plant response rating, Barnyardgrass: 10
[8]
  Plant response rating, Ragweed: 0
[9]
  Plant response rating, Ryegrass, Italian: 0
[10]
  Plant response rating, Barnyardgrass: 10
[11]
  Plant response rating, Blackgrass: 0
[12]
  Plant response rating, Horseweed: 0
[13]
  Plant response rating, Foxtail, Giant: 10
[14]
  Plant response rating, Ragweed: 0
[15]
  Plant response rating, Pigweed, Palmer: 0
[16]
  Plant response rating, Kochia: 40
